In one test the test system is Escherichia coli US311. Briefly: in vivo protection of mice against lethal Escherichia coli US311 infection (single subcutaneous dose). As to conditions: Carworth Farms CF-1 mice, about 20 gm., infected intraperitoneally with lethal dose of E. coli US311 (10^-3 TSP dilution of 5 hour TSP blood culture). Set-up: species or system Escherichia coli US311 in Carworth Farms CF-1 mice. How it is done:
These new substances show high in vivo antibacterial activity in mice against Escherichia coli US311 when administered by a single subcutaneous dose to groups of Carworth Farms CF-1 mice, weight about 20 gm., infected intraperitoneally with a lethal dose of this bacteria in a 10^- 3 trypticase soy broth TSP dilution of a 5 hour TSP blood culture. In Table VI below is set forth the in vivo activity of typical products of this invention (prepared from the indicated carbonyl reagents) against Escherichia coli US311 in mice. The activity is expressed in terms of the ED50 or the dose in mg./kg. of body weight required to protect 50% of the mice against E. coli.
1,2,2-dimethylhydroxypropyl-BM123γ: the “ED50 (dose required to protect 50% of the mice against E. coli)” value was 0.18 mg./kg. of body weight. On the same count and under the same terms, with 1,2,2-trimethylpropyl-BM123γ the figure was < 0.12 mg./kg. of body weight.

Take 1,2,3-trimethylpentyl-BM123γ: the “ED50 (dose required to protect 50% of the mice against E. coli)” value was 0.39 mg./kg. of body weight. Same read-out and setting: with 1,2,4-trimethylheptyl-BM123γ the figure was 0.37 mg./kg. of body weight; with 1,2-dimethyl-3-hydroxypropyl-BM123γ, 0.12 mg./kg. of body weight; with 1,2-dimethylbutyl-BM123γ, 0.12 mg./kg. of body weight.

Turning to 1,2-dimethylpentyl-BM123γ, the “ED50 (dose required to protect 50% of the mice against E. coli)” value was 0.18 mg./kg. of body weight. Consider 1,2-dimethylpropyl-BM123γ, for which the “ED50 (dose required to protect 50% of the mice against E. coli)” value is listed as 0.19 mg./kg. of body weight. On the same count and under the same terms, with 1,3,3-trimethylbutyl-BM123γ the figure was 0.18 mg./kg. of body weight. Still for that read-out and setting: with 1,3,3-trimethylcyclopentyl-BM123γ the figure was 0.37 mg./kg. of body weight; with 1,3-dimethylbuten(-2-)yl-BM123γ, 0.3 mg./kg. of body weight. Same read-out and setting: with 1,3-dimethylbutyl-BM123γ the figure was < 0.12 mg./kg. of body weight; with 1,3-dimethylhexyl-BM123γ, 0.5 mg./kg. of body weight.

As for 1,3-dimethylpentyl-BM123γ, the “ED50 (dose required to protect 50% of the mice against E. coli)” value is given as < 0.12 mg./kg. of body weight.

As for 1,4-dimethylpentyl-BM123γ, the “ED50 (dose required to protect 50% of the mice against E. coli)” value is 0.12 mg./kg. of body weight. Still for that read-out and setting: with 1,5-dimethylhexen(-4-)yl-BM123γ the figure was 0.06 mg./kg. of body weight; with 1-(3-pyridyl)ethyl-BM123γ, 0.75 mg./kg. of body weight; with 1-(carbethoxymethyl)butyl-BM123γ, 0.75 mg./kg. of body weight. On the same count and under the same terms, with 1-[5-norbornene(2)]ethyl-BM123γ the figure was < 0.12 mg./kg. of body weight.

For “1-[(dimethoxyphosphinyl)methyl]-hexyl-BM123γ”, the “ED50 (dose required to protect 50% of the mice against E. coli)” value is listed as 0.3 mg./kg. of body weight.

For 1-benzyl-4-piperidyl-BM123γ, the “ED50 (dose required to protect 50% of the mice against E. coli)” value was 0.18 mg./kg. of body weight.

As to “1-carbomethoxy-2-carbomethoxyethyl-BM123γ”, the “ED50 (dose required to protect 50% of the mice against E. coli)” value was 0.75 mg./kg. of body weight. Same read-out and setting: with 1-cyclohexylpropyl-BM123γ the figure was 0.37 mg./kg. of body weight. For 1-cyclopentylethyl-BM123γ, the “ED50 (dose required to protect 50% of the mice against E. coli)” value is recorded as 0.18 mg./kg. of body weight.

Consider 1-cyclopropylethyl-BM123γ, for which the “ED50 (dose required to protect 50% of the mice against E. coli)” value was 0.25 mg./kg. of body weight. On the same count and under the same terms, with 1-ethyl-3-chloropropyl-BM123γ the figure was 0.12 mg./kg. of body weight.

For the substance 1-ethylbutyl-BM123γ, the “ED50 (dose required to protect 50% of the mice against E. coli)” value is recorded as 0.39 mg./kg. of body weight. With 1-ethylhexyl-BM123γ, the “ED50 (dose required to protect 50% of the mice against E. coli)” value is 0.18 mg./kg. of body weight.

For the substance 1-ethylnonyl-BM123γ, the “ED50 (dose required to protect 50% of the mice against E. coli)” value is on record as 0.38 mg./kg. of body weight. With 1-ethyloctyl-BM123γ, the “ED50 (dose required to protect 50% of the mice against E. coli)” value is listed as 0.25 mg./kg. of body weight. The same measure, in the same setting: with 1-ethylpentyl-BM123γ the figure was 0.25 mg./kg. of body weight; with 1-ethylpropyl-BM123γ, 0.12 mg./kg. of body weight; with 1-isopropyl-4-methylpentyl-BM123γ, 0.39 mg./kg. of body weight. Take 1-methyl-2,2-dimethoxyethyl-BM123γ: the “ED50 (dose required to protect 50% of the mice against E. coli)” value is 0.5 mg./kg. of body weight.

On to 1-methyl-2-(2-chlorophenyl)ethyl-BM123γ, for which the “ED50 (dose required to protect 50% of the mice against E. coli)” value was 0.37 mg./kg. of body weight. In the case of “1-methyl-2-(2-methoxyphenyl)ethyl-BM123γ”, the “ED50 (dose required to protect 50% of the mice against E. coli)” value is 0.7 mg./kg. of body weight. The same measure, in the same setting: with 1-methyl-2-(3-chlorophenyl)ethyl-BM123γ the figure was 0.38 mg./kg. of body weight. On to “1-methyl-2-(3-hydroxy-2-methylpropyl)-BM123γ”, for which the “ED50 (dose required to protect 50% of the mice against E. coli)” value is 0.18 mg./kg. of body weight.

As for “1-methyl-2-(3-methoxyphenyl)ethyl-BM123γ”, the “ED50 (dose required to protect 50% of the mice against E. coli)” value is listed as 0.30 mg./kg. of body weight. On the same count and under the same terms, with 1-methyl-2-(4-chlorophenyl)ethyl-BM123γ the figure was 0.25 mg./kg. of body weight; with “1-methyl-2-(N,N-dimethylamino)propyl-BM123γ”, 1.5 mg./kg. of body weight; with “1-methyl-2-(N,N-dipropylamino)-ethyl-BM123γ”, 0.3 mg./kg. of body weight. The same measure, in the same setting: with 1-methyl-2-(β-indolyl)ethyl-BM123γ the figure was 0.12 mg./kg. of body weight; with 1-methyl-2-acetylethyl-BM123γ, 1.5 mg./kg. of body weight; with 1-methyl-2-carboethoxypropyl-BM123γ, 0.18 mg./kg. of body weight.

With “1-methyl-2-chloro-2-carbethoxyethyl-BM123γ”, the “ED50 (dose required to protect 50% of the mice against E. coli)” value is 1.5 mg./kg. of body weight. Same read-out and setting: with 1-methyl-2-cyclohexylethyl-BM123γ the figure was 0.18 mg./kg. of body weight; with “1-methyl-2-cyclopenten(-2-)-yl-ethyl-BM123γ”, < 0.12 mg./kg. of body weight.

For 1-methyl-2-ethylbutyl-BM123γ, the “ED50 (dose required to protect 50% of the mice against E. coli)” value is reported as 0.18 mg./kg. of body weight.

For the substance 1-methyl-2-hydroxypropyl-BM123γ, the “ED50 (dose required to protect 50% of the mice against E. coli)” value is reported as 0.37 mg./kg. of body weight.

For 1-methyl-2-methoxyethyl-BM123γ, the “ED50 (dose required to protect 50% of the mice against E. coli)” value is given as 0.3 mg./kg. of body weight.

As for “1-methyl-2-o-[tolylcarbamoylethyl]-BM123γ”, the “ED50 (dose required to protect 50% of the mice against E. coli)” value is reported as 0.25 mg./kg. of body weight. On the same count and under the same terms, with 1-methyl-2-phenoxyethyl-BM123γ the figure was 0.3 mg./kg. of body weight; with 1-methyl-2-phenylethyl-BM123γ, 0.18 mg./kg. of body weight. On the same count and under the same terms, with 1-methyl-3,3-dimethoxypropyl-BM123γ the figure was 0.75 mg./kg. of body weight; with “1-methyl-3-(4-hydroxyphenyl)ethyl-BM123γ”, 0.3 mg./kg. of body weight; with “1-methyl-3-(N,N-diethylamino)propyl-BM123γ”, 0.18 mg./kg. of body weight. As to 1-methyl-3-methoxypropen(-2-)yl-BM123γ, the “ED50 (dose required to protect 50% of the mice against E. coli)” value is recorded as > 2.0 mg./kg. of body weight. As for 1-methyl-3-phenylpropen(-2-)yl-BM123γ, the “ED50 (dose required to protect 50% of the mice against E. coli)” value is reported as 0.25 mg./kg. of body weight. 1-methyl-3-phenylpropyl-BM123γ: the “ED50 (dose required to protect 50% of the mice against E. coli)” value is reported as 0.38 mg./kg. of body weight.

As for “1-methyl-4-(N,N-diethylamino)butyl-BM123γ”, the “ED50 (dose required to protect 50% of the mice against E. coli)” value was 0.5 mg./kg. of body weight. On the same count and under the same terms, with 1-methyl-4-chlorobutyl-BM123γ the figure was 0.37 mg./kg. of body weight. On the same count and under the same terms, with 1-methyl-4-hydroxybutyl-BM123γ the figure was 0.18 mg./kg. of body weight. The same measure, in the same setting: with 1-methyl-4-piperidyl-BM123γ the figure was 0.75 mg./kg. of body weight; with 1-methyl-5-pentenyl-BM123γ, 0.18 mg./kg. of body weight; with 1-methyl-butyn(-2-)yl-BM123γ, < 2.0 mg./kg. of body weight. On to 1-methyl-hexen-4-yl-BM123γ, for which the “ED50 (dose required to protect 50% of the mice against E. coli)” value is listed as 0.18 mg./kg. of body weight. On the same count and under the same terms, with 1-methyl-penten(-4-)yl-BM123γ the figure was 0.38 mg./kg. of body weight; with 1-methylbutyl-BM123γ, < 0.12 mg./kg. of body weight. Same read-out and setting: with 1-methyldecyl-BM123γ the figure was > 2 mg./kg. of body weight; with 1-methylheptyl-BM123γ, 0.38 mg./kg. of body weight; with 1-methylhexyl-BM123γ, 0.38 mg./kg. of body weight. On the same count and under the same terms, with 1-methylnonyl-BM123γ the figure was 0.18 mg./kg. of body weight.

Still in this test, the particulars now being: Carworth Farms CF-1 mice, about 20 gm., infected intraperitoneally with lethal dose of E. coli US311 (10^-3 TSP dilution of 5 hour TSP blood culture), listed as 1-methyl-2,2-dimethylpropyl-BM123γ.
On to 1,2,2-trimethylpropyl-BM123γ, for which the “ED50 (dose required to protect 50% of the mice against E. coli)” value is 0.18 mg./kg. of body weight.

(Values after patent US4048431A, “Alkylated derivatives of antibiotic BM123γ” (American Cyanamid Company, priority 1975, dated 1977).)
